Consider 6 molecules from patent publication US10941120B1, “6-aminouracil cassic acid ester with antibacterial activity and a method of preparing the same” (SHAANXI UNIVERSITY OF SCIENCE AND TECHNOLOGY, priority 2020, dated 2021).

Assay type in all cases: cell-based
The subject of assay [1] is multidrug-resistant Pseudomonas aeruginosa MDR-PA 18-202. The assay is described as follows: MIC by microbroth dilution, MDR-PA 18-202. From the text:
(§1) The minimal inhibitory concentration (MIC) of the compounds as determined by a microbroth dilution method with gentamicin, cefazolin sodium and ceftriaxone sodium as positive control.
(§2) The experimental strains included methicillin-resistant Gram-positive bacteria: methicillin-resistant Staphylococcus aureus MRSA 18-222, 18-575; multiple drug-resistant […] bacteria: vancomycin-resistant enterococci VRE 18-80, 18-94; multidrug-resistant Pseudomonas aeruginosa MDR-PA 18-1774, 18-202; carbapenem-resistant Acinetobacter baumannii CR-AB 18-183, 18-560. All the experimental strains were donated by Huashan Hospital affiliated to Fudan University (Institute of Antibiotics, Fudan University) and used after routine identification.
(§3) Preparation of Test Strains:
(§4) Preparation of MHB medium: 20.0 g MHB medium was added to 1 L distilled water, boiled until completely dissolved, packed in conical bottles and sterilized at 121° C. for 15 min.
(§5) The experimental strain was cultured to the logarithmic growth phase: under aseptic condition, the experimental strain was inoculated into 100 mL NMB medium and incubated in a constant temperature and humidity incubator at 37° C. for 20-22 hours.
(§6) Preparation of storage solution: weigh the sample to be tested, dissolve it with 1% DMSO solution, prepare a storage solution with a concentration of 2560 μg/mL, weigh a positive reference substance, dissolve it with aseptic distilled water, and configure a storage solution with a concentration of 2560 μg/mL.
(§7) Preparation of bacterial suspension: under aseptic condition, the experimental strains cultured to logarithmic growth phase were adjusted to 0.5 MCF turbidity standard with MHB medium and diluted according to 1:10, and the bacterial suspension with concentration of 10^6 CFU/mL was prepared for standby.
(§8) Dilution of storage solution and inoculation of experimental strain: under aseptic condition, the storage solution was diluted to 256 μg/mL solution. Take a sterile 96-well plate, add 200 μL MHB medium to the 12th well, and add 100 μL MHB medium to each well. Add 100 μL of positive control solution to the first well, mix well, and suck 100 μL from it and discard. Add 100 μL of the compound sample solution to the second well, mix well, and then pipette 100 μL to the third well. After mixing, pipette 100 μL to the fourth well, and dilute to the 11th well in this way. Finally, 100 μL was pipetted from the 11th well and discarded. The 12th hole was the growth control without drugs. So far, the concentration of the positive reference substance is 128 μg/mL, the concentrations of the sample solution are 128, 64, 16, 8, 4, 2, 1, 0.5, 0.25 μg/mL respectively. Then, 100 μL of the prepared bacterial suspension is added to each well, so that the final concentration of the bacterial liquid in each well is 5×10^5 CFU/mL.
(§9) Incubation: Cover the 96-well plate inoculated with the experimental strains, and incubate in a constant temperature and humidity box at 37° C. for 20-22 hours.
For orientation: In broth dilution the organism is exposed to a series of concentrations in liquid medium.

The test system of assay [2] is methicillin-resistant Staphylococcus aureus MRSA 18-575. In words: MIC by microbroth dilution, MRSA 18-575.
Text: as §1, §2, §3, §4, §5, §6, §7, §8, §9

The subject of assay [3] is carbapenem-resistant Acinetobacter baumannii CR-AB 18-560. In words: MIC by microbroth dilution, CR-AB 18-560.
Text: as §1, §2, §3, §4, §5, §6, §7, §8, §9

Assay [4] relates to multidrug-resistant Pseudomonas aeruginosa MDR-PA 18-174. The assay is described as follows: MIC by microbroth dilution, MDR-PA 18-174. Particulars: for Minimum bacteriostatic concentration: MDR-PA 18-174.
Text: as §1, §2, §3, §4, §5, §6, §7, §8, §9
In FIGS. 1-6, the twelve wells represent twelve groups, from left to right, positive, 128 μg/mL, 64 μg/mL, 32 μg/mL, 16 μg/mL, 8 μg/mL, 4 μg/mL, 2 μg/mL, 1 μg/mL, 0.25 μg/mL, 0.0625 μg/mL, Negative.

Assay [5] concerns carbapenem-resistant Acinetobacter baumannii CR-AB 18-183. The assay is described as follows: MIC by microbroth dilution, CR-AB 18-183.
Text: as §1, §2, §3, §4, §5, §6, §7, §8, §9

Assay [6] relates to vancomycin-resistant enterococci VRE 18-80. The assay is described as follows: MIC by microbroth dilution, VRE 18-80.
Text: as §1, §2, §3, §4, §5, §6, §7, §8, §9

For assay [7], the system named is methicillin-resistant Staphylococcus aureus MRSA 18-222. In words: MIC by microbroth dilution, MRSA 18-222.
Text: as §1, §2, §3, §4, §5, §6, §7, §8, §9

The test system of assay [8] is vancomycin-resistant enterococci VRE 18-94. In words: MIC by microbroth dilution, VRE 18-94. To be noted: for Minimum bacteriostatic concentration: VRE 18-94.
Text: as §1, §2, §3, §4, §5, §6, §7, §8, §9

The next assay has as its system drug-resistant bacteria. In words: Antibacterial activity test, whole panel of drug-resistant strains. To be noted: all tested strains, summary in words.
Text: as §1, §2, §3, §4
The experimental strain was cultured to the logarithmic growth phase: under aseptic condition, the experimental strain was inoculated into 100 mL NMB medium and incubated in a constant temperature and humidity incubator at 37° C. for 20-22 hours. […]

≈ marks a conversion by molar mass, not a printed value. Where only a bound is given, the exact number is not on record here.

By MIC is commonly meant the lowest concentration that inhibits growth of the organism. Take `O=C(Nc1cc(=O)[nH]c(=O)[nH]1)c1cc(O)c2c(c1)C(=O)c1cccc(O)c1C2=O` [6-Aminouracil cassic acid ester, N-(2,6-dioxo-1,2,3,6-tetrahydropyrimidin-4-yl)-4,5-dihydroxy-9,10-dioxo-9,10-dihydroanthracene-2-carboxamide]: the Minimum bacteriostatic concentration is greater than 128 µg/mL in [1]; greater than 128 µg/mL in [2]; greater than 128 µg/mL in assay [3]; 128 µg/mL in assay [4]; greater than 128 µg/mL in assay [5]; greater than 128 µg/mL in assay [6]. Moreover, the Minimum bacteriostatic concentration was greater than 128 µg/mL in assay [7] and 64 µg/mL in assay [8]. The MIC amounted to 128 µg/mL (≈ 325 µM) in assay [4] (multi-drug resistant Pseudomonas aeruginosa MDR-PA, strain not given) and 64 µg/mL (≈ 163 µM) in assay [8] (vancomycin resistant Enterococcus VRE, strain not given).
Turning to `Nc1cc(=O)[nH]c(=O)[nH]1` [6-Aminouracil], the “inhibitory effect on drug-resistant bacteria” value with drug-resistant bacteria was “no inhibitory effect”. The Minimum bacteriostatic concentration in assay [1], in [2], in assay [3], in assay [4], in [5] and in assay [6] was greater than 128 µg/mL each time. Moreover, the Minimum bacteriostatic concentration in assay [7] and in assay [8] was greater than 128 µg/mL throughout.
`O=C(O)c1cc(O)c2c(c1)C(=O)c1cccc(O)c1C2=O` [Cassic acid]: the “inhibitory effect on drug-resistant bacteria” value in the assay with drug-resistant bacteria is listed as “no inhibitory effect”. Moreover, the Minimum bacteriostatic concentration in [1], in assay [2], in assay [3], in [4], in [5] and in assay [6] was greater than 128 µg/mL in each case. Further, the Minimum bacteriostatic concentration in [7] and in assay [8] was greater than 128 µg/mL in each case.
For the molecule `Cc1nnc(SCC2=C(C(=O)O)N3C(=O)[C@@H](NC(=O)Cn4cnnn4)[C@H]3SC2)s1` [Cefazolin sodium, cefazolin sodium], the Minimum bacteriostatic concentration in [1] is 128 µg/mL; in [2], greater than 128 µg/mL; in [3] it was greater than 128 µg/mL; in assay [4], 8 µg/mL; in assay [5], greater than 128 µg/mL; in [6], 32 µg/mL. Further, the Minimum bacteriostatic concentration in [7] and in assay [8] was greater than 128 µg/mL each time.
For `CO/N=C(\C(=O)N[C@@H]1C(=O)N2C(C(=O)O)=C(CSc3nc(=O)c(=O)[nH]n3C)CS[C@H]12)c1csc(N)n1` [Ceftriaxone sodium, ceftriaxone sodium], the Minimum bacteriostatic concentration was 16 µg/mL in assay [1]; greater than 128 µg/mL in assay [2]; greater than 128 µg/mL in assay [3]; 128 µg/mL in assay [4]; greater than 128 µg/mL in [5]; 8 µg/mL in [6]. The Minimum bacteriostatic concentration in [7] and in [8] was greater than 128 µg/mL in each case.
On to gentamicin, for which the Minimum bacteriostatic concentration is 0.0625 µg/mL in assay [1]; 2 µg/mL in assay [2]; greater than 128 µg/mL in [3]; 0.0625 µg/mL in [4]; greater than 128 µg/mL in assay [5]; 0.0625 µg/mL in assay [6]. Besides, the Minimum bacteriostatic concentration in [7] is 128 µg/mL; in assay [8], greater than 128 µg/mL.
